This note sets out measurements from ChEMBL document CHEMBL1806461, “Identification of MK-5710 ((8aS)-8a-methyl-1,3-dioxo-2-[(1S,2R)-2-phenylcyclopropyl]-N-(1-phenyl-1H-pyrazol-5-yl)hexahydroimid azo[1,5-a]pyrazine-7(1H)-carboxamide), a potent smoothened antagonist for use in Hedgehog pathway dependent malignancies, part 1” (Bioorg Med Chem Lett, 2011).

The target of series [1] is T1, Protein smoothened (Homo sapiens, UniProt Q99835). The series can be described thus: Displacement of [125I]-PA cyclopamine from smoothened expressed in african green monkey COS-1 cells after 10 mins by autoradiography. It counts as cell-based. On the technique in general: Loss of bound radioactivity is the signal in a displacement assay; it reports binding, not function.
T1 sequence (Q99835 whole entry): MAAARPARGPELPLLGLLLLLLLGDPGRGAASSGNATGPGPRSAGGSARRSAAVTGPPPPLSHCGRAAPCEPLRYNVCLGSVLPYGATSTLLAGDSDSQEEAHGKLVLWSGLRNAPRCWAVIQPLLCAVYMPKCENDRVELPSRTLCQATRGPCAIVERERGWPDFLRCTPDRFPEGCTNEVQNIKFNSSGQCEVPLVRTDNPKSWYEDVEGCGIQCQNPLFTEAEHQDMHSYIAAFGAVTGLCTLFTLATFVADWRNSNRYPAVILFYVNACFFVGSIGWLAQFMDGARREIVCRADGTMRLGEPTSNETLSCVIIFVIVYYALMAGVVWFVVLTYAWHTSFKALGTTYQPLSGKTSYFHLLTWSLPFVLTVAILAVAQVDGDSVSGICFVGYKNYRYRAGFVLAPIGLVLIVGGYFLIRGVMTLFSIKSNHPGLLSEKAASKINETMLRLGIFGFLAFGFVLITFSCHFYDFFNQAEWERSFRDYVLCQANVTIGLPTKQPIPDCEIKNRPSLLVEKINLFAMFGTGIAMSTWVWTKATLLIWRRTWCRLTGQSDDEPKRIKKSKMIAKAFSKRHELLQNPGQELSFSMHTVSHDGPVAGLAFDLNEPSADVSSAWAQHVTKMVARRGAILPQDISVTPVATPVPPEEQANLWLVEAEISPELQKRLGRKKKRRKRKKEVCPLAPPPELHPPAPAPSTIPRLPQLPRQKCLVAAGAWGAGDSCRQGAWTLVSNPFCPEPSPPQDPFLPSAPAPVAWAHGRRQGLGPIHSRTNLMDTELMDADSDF

Series [2] addresses T1, Protein smoothened. The settings on record: Shh Light II; 2 uM.
Description: Antagonist activity at smoothened expressed in mouse Shh Light2 cells co-expressing Gli-dependent reporter gene assessed as inhibition of Hh pathway at 2 uM
Series [3] deals with Shh Light II. The series can be described thus: Cytotoxicity against mouse Shh Light2 cells assessed as cell viability at 2.5 uM. It is filed as cell-based.
Series [4] in a line: Intrinsic clearance in rat liver microsomes assessed per mg of protein. It is filed as ADME, Microsome.
The nature of series [5]: Growth inhibition of Ptch +/- mouse medulloblastoma cells. To be noted: Medulloblastoma cell. It counts as functional.

SMILES strings stand for the structures. Active and inactive are the calls of the source. The calls are words filed in the database; no cut-off is given here.

For `O=C(Nc1ccccc1-c1ccccc1)c1ccc2c(c1)C(=O)N([C@H]1C[C@@H]1c1ccccc1)C2=O`, the IC50 in series [1] was 3.2 µM.

`O=C(Nc1ccccc1-c1ccsc1)N1CCN2C(=O)N([C@H]3C[C@@H]3c3ccccc3)C(=O)C2C1` (mixture of isomers) gave an IC50 in series [1] of 0.22 µM.

With `O=C(Nc1ccccc1-c1cnco1)N1CCN2C(=O)N([C@H]3C[C@@H]3c3ccccc3)C(=O)C2C1` (mixture of isomers), the IC50 in series [1] worked out at 1.8 µM.

Consider `O=C(Nc1cccnc1-c1ccccc1)N1CCN2C(=O)N([C@H]3C[C@@H]3c3ccccc3)C(=O)C2C1` (mixture of isomers), for which, in series [1], the IC50 was determined as 0.012 µM.

Compound `O=C(Nc1ccncc1-c1ccccc1)N1CCN2C(=O)N([C@H]3C[C@@H]3c3ccccc3)C(=O)C2C1` (mixture of isomers) had an IC50 in series [1] of 0.088 µM.

`O=C(Nc1cccnc1-c1ccc(Cl)cc1)N1CCN2C(=O)N([C@H]3C[C@@H]3c3ccccc3)C(=O)C2C1` (mixture of isomers): the IC50 in series [1] came out at 0.68 µM.

Regarding `O=C(Nc1cccnc1-c1cccc(Cl)c1)N1CCN2C(=O)N([C@H]3C[C@@H]3c3ccccc3)C(=O)C2C1` (mixture of isomers), the concentration for half-maximal inhibition (IC50) in series [1] came to 0.019 µM.

In series [1], `O=C(Nc1cccnc1-c1ccccc1Cl)N1CCN2C(=O)N([C@H]3C[C@@H]3c3ccccc3)C(=O)C2C1` (mixture of isomers) registered an IC50 of 0.14 µM.

`O=C(Nc1cccnc1-c1cccc(C(F)(F)F)c1)N1CCN2C(=O)N([C@H]3C[C@@H]3c3ccccc3)C(=O)C2C1` (mixture of isomers) registered an IC50 in series [1] of 0.16 µM.

`COc1cccc(-c2ncccc2NC(=O)N2CCN3C(=O)N([C@H]4C[C@@H]4c4ccccc4)C(=O)C3C2)c1` (mixture of isomers) returned an IC50 in series [1] of 0.047 µM.

The compound `O=C(Nc1cccnc1-c1ccsc1)N1CCN2C(=O)N([C@H]3C[C@@H]3c3ccccc3)C(=O)C2C1` (mixture of isomers) showed an IC50 in series [1] of 0.088 µM.

In series [1], `Cn1cc(-c2ncccc2NC(=O)N2CCN3C(=O)N([C@H]4C[C@@H]4c4ccccc4)C(=O)C3C2)cn1` (mixture of isomers) showed an IC50 of 0.62 µM.

Compound `O=C(Nc1ccnn1-c1ccccc1)N1CCN2C(=O)N([C@H]3C[C@@H]3c3ccccc3)C(=O)C2C1` (mixture of isomers) displayed an IC50 in series [1] of 0.013 µM.

Compound `O=C(Nc1ccccc1-c1ccccc1)N1CCN2C(=O)N([C@H]3C[C@@H]3c3ccccc3)CC2C1` (mixture of isomers) yielded an IC50 in series [1] of 1.4 µM.

For `O=C(Nc1ccnn1-c1ccccc1)N1CCN2C(=O)N([C@H]3C[C@@H]3c3ccccc3)C(=O)CC2C1` (mixture of isomers), the IC50 in series [1] stood at 7.8 µM.

In the case of `O=C(Nc1ccnn1-c1ccccc1)N1CCN2CC(=O)N([C@H]3C[C@@H]3c3ccccc3)C(=O)C2C1` (mixture of isomers), the IC50 in series [1] was determined as 5.1 µM.

Consider `COC(=O)N1CCN2C(=O)N([C@H]3C[C@@H]3c3ccccc3)C(=O)C2C1` (mixture of isomers), for which the IC50 in series [1] is more than 1.5 µM.

With `CC(=O)N1CCN2C(=O)N([C@H]3C[C@@H]3c3ccccc3)C(=O)C2C1` (mixture of isomers), in series [1], the IC50 is more than 1.5 µM.

Compound `O=C(C1CCCCC1)N1CCN2C(=O)N([C@H]3C[C@@H]3c3ccccc3)C(=O)C2C1` (mixture of isomers) yielded an IC50 in series [1] of more than 1.5 µM.

Take `CC(C)(C)C(=O)N1CCN2C(=O)N([C@H]3C[C@@H]3c3ccccc3)C(=O)C2C1` (mixture of isomers): the IC50 in series [1] came to 4 µM.

For `O=C1C2CN(CC3CCCCC3)CCN2C(=O)N1[C@H]1C[C@@H]1c1ccccc1` (mixture of isomers), in series [1], the concentration for half-maximal inhibition (IC50) was more than 2.5 µM.

Consider `CN(C)C(=O)N1CCN2C(=O)N([C@H]3C[C@@H]3c3ccccc3)C(=O)C2C1` (mixture of isomers), for which the IC50 in series [1] is more than 2.5 µM. Besides, the inhibition entry in series [2] was “Active”. Besides, the Activity entry in series [3] is on record as “Non-toxic”.

For the compound `O=C(NCc1ccco1)N1CCN2C(=O)N([C@H]3C[C@@H]3c3ccccc3)C(=O)C2C1` (mixture of isomers), the IC50 in series [1] was more than 2.5 µM.

For `O=C(NC1CCCCC1)N1CCN2C(=O)N([C@H]3C[C@@H]3c3ccccc3)C(=O)C2C1` (mixture of isomers), the IC50 in series [1] worked out at 0.25 µM.

On to `CCCCCCNC(=O)N1CCN2C(=O)N([C@H]3C[C@@H]3c3ccccc3)C(=O)C2C1` (mixture of isomers), for which the IC50 in series [1] came out at 0.38 µM.

In turn, `CCCCN(CCCC)C(=O)N1CCN2C(=O)N([C@H]3C[C@@H]3c3ccccc3)C(=O)C2C1` (mixture of isomers) returned an IC50 in series [1] of 0.92 µM.

With `O=C(Nc1cccc(Cl)c1Cl)N1CCN2C(=O)N([C@H]3C[C@@H]3c3ccccc3)C(=O)C2C1` (mixture of isomers), the IC50 in series [1] came out at 0.22 µM. The compound further returned a microsomal CLint in series [4] of 180 µL/min/mg. Also, in series [5], half-maximal cytotoxicity (CC50) was put at 0.0033 µM.

Turning to `O=C(Nc1cc(Cl)cc(Cl)c1)N1CCN2C(=O)N([C@H]3C[C@@H]3c3ccccc3)C(=O)C2C1` (mixture of isomers), the IC50 in series [1] turned out to be 0.28 µM.

Regarding `O=C(Nc1c(Cl)cccc1Cl)N1CCN2C(=O)N([C@H]3C[C@@H]3c3ccccc3)C(=O)C2C1` (mixture of isomers), in series [1], the IC50 was found to be 0.28 µM.

In series [1], `O=C(Nc1ccc(F)cc1Cl)N1CCN2C(=O)N([C@H]3C[C@@H]3c3ccccc3)C(=O)C2C1` (mixture of isomers) gave an IC50 of 1.1 µM.

With `O=C(Nc1ccc2c(c1)OCO2)N1CCN2C(=O)N([C@H]3C[C@@H]3c3ccccc3)C(=O)C2C1` (mixture of isomers), in series [1], the IC50 was 0.7 µM.

Turning to `O=C(Nc1ccccc1-c1ccccc1)N1CCN2C(=O)N([C@H]3C[C@@H]3c3ccccc3)C(=O)C2C1` (mixture of isomers), in series [1], the IC50 is 0.094 µM. The microsomal CLint in series [4] is more than 300 µL/min/mg. Moreover, it took 0.012 µM to reach half-maximal cytotoxicity in series [5] (CC50).

The compound `CN(C(=O)N1CCN2C(=O)N([C@H]3C[C@@H]3c3ccccc3)C(=O)C2C1)c1ccccc1-c1ccccc1` (mixture of isomers) gave an IC50 in series [1] of 1 µM.

Regarding `O=C(Nc1ccc(-c2ccccc2)cc1)N1CCN2C(=O)N([C@H]3C[C@@H]3c3ccccc3)C(=O)C2C1` (mixture of isomers), the IC50 in series [1] is 0.89 µM.

Consider `O=C(Nc1ccccc1-c1ccccc1)N1CCN2C(=O)N([C@H]3C[C@H]3c3ccccc3)C(=O)C2C1` (mixture of isomers), for which the IC50 in series [1] was more than 2.5 µM.

In series [1], `COC(=O)c1cccc(NC(=O)N2CCN3C(=O)N([C@H]4C[C@@H]4c4ccccc4)C(=O)C3C2)c1Cl` (mixture of isomers) had an IC50 of 1.1 µM.

Turning to `Cc1c(Cl)cccc1NC(=O)N1CCN2C(=O)N([C@H]3C[C@@H]3c3ccccc3)C(=O)C2C1` (mixture of isomers), the IC50 in series [1] came out at 0.46 µM.

With `Cc1cccc(Cl)c1NC(=O)N1CCN2C(=O)N([C@H]3C[C@@H]3c3ccccc3)C(=O)C2C1` (mixture of isomers), the IC50 in series [1] stood at 0.77 µM.

For the compound `O=C(Nc1ccc(F)c(Cl)c1Cl)N1CCN2C(=O)N([C@H]3C[C@@H]3c3ccccc3)C(=O)C2C1` (mixture of isomers), in series [1], the IC50 worked out at 0.48 µM.

Consider `O=C(Nc1c(Cl)cc(F)cc1Cl)N1CCN2C(=O)N([C@H]3C[C@@H]3c3ccccc3)C(=O)C2C1` (mixture of isomers), for which, in series [1], the IC50 amounted to 0.31 µM.

Turning to `O=C(Nc1c(Cl)cc(OC(F)(F)F)cc1Cl)N1CCN2C(=O)N([C@H]3C[C@@H]3c3ccccc3)C(=O)C2C1` (mixture of isomers), in series [1], the IC50 was determined as 0.13 µM.

In turn, `O=C(Nc1c(Cl)cc(C(F)(F)F)cc1Cl)N1CCN2C(=O)N([C@H]3C[C@@H]3c3ccccc3)C(=O)C2C1` (mixture of isomers) yielded an IC50 in series [1] of 0.28 µM.

`CS(=O)(=O)c1cc(Cl)c(NC(=O)N2CCN3C(=O)N([C@H]4C[C@@H]4c4ccccc4)C(=O)C3C2)c(Cl)c1` (mixture of isomers) yielded an IC50 in series [1] of 0.077 µM.

Compound `N#Cc1cc(Cl)c(NC(=O)N2CCN3C(=O)N([C@H]4C[C@@H]4c4ccccc4)C(=O)C3C2)c(Cl)c1` (mixture of isomers) had an IC50 in series [1] of 0.062 µM.

As to `Cc1cc(C#N)cc(Cl)c1NC(=O)N1CCN2C(=O)N([C@H]3C[C@@H]3c3ccccc3)C(=O)C2C1` (mixture of isomers), the IC50 in series [1] was found to be 0.084 µM.

Take `CC(C)c1ccccc1NC(=O)N1CCN2C(=O)N([C@H]3C[C@@H]3c3ccccc3)C(=O)C2C1` (mixture of isomers): the IC50 in series [1] is 0.21 µM.

With `O=C(Nc1ccccc1C(F)(F)F)N1CCN2C(=O)N([C@H]3C[C@@H]3c3ccccc3)C(=O)C2C1` (mixture of isomers), the IC50 in series [1] was 0.89 µM.

As for `N#Cc1ccccc1NC(=O)N1CCN2C(=O)N([C@H]3C[C@@H]3c3ccccc3)C(=O)C2C1` (mixture of isomers), in series [1], the IC50 was more than 2.5 µM.

Consider `COc1ccccc1NC(=O)N1CCN2C(=O)N([C@H]3C[C@@H]3c3ccccc3)C(=O)C2C1` (mixture of isomers), for which the IC50 in series [1] came out at 1.7 µM.

On to `O=C(Nc1ccccc1-c1ccccc1)N1CCN2C(=O)N(CCc3ccccc3)C(=O)C2C1` (racemic), for which, in series [1], the IC50 was determined as 2 µM.

The compound `O=C(Nc1ccccc1-c1ccccc1)N1CCN2C(=O)N(Cc3ccccc3)C(=O)C2C1` (racemic) registered an IC50 in series [1] of more than 2.5 µM.

In turn, `O=C(Nc1ccccc1-c1ccccc1)N1CCN2C(=O)N(c3cccc4ccccc34)C(=O)C2C1` (racemic) had an IC50 in series [1] of more than 2.5 µM.

The compound `O=C(Nc1ccccc1-c1ccccc1)N1CCN2C(=O)N(c3cccc(-c4ccccc4)c3)C(=O)C2C1` (racemic) yielded an IC50 in series [1] of more than 2.5 µM.

The compound `CCCCN1C(=O)C2CN(C(=O)Nc3ccccc3-c3ccccc3)CCN2C1=O` (racemic) came in with an IC50 in series [1] of more than 2.5 µM.

Regarding `O=C(Nc1ccccc1-c1ccccc1)N1CCN2C(=O)N(C3CC34CCCCC4)C(=O)C2C1` (racemic), the IC50 in series [1] was more than 2.5 µM.

`O=C(Nc1ccccc1-c1ccccc1)N1CCN2C(=O)N([C@H]3C[C@H](c4ccccc4)C3)C(=O)C2C1` (mixture of isomers): the IC50 in series [1] came to 0.44 µM.

In series [1], `O=C(Nc1ccccc1-c1ccccc1)N1CCN2C(=O)N(C3Cc4ccccc4C3)C(=O)C2C1` (racemic) registered an IC50 of 0.88 µM.

For orientation: IC50 means the concentration that gives 50% inhibition. A word on the microsomal CLint: it is the rate of metabolic loss divided by the concentration. What is called CC50 is the concentration giving 50% cytotoxicity.
